Experimental data taken from patent publication US20230122911A1, “FORMULATIONS OF ENZALUTAMIDE” (Astellas Pharma Inc., priority 2012, published 2023).

How the values were obtained:
[1] = Microcentrifuge dissolution before and after suspension for 2 hr in aqueous 0.5% methylcellulose; type: physicochemical
Procedure: Drugs and drug formulations are sometimes dosed as aqueous suspensions, particularly for pediatric patients. The ability of various enzalutamide SDDs to retain their ability to maintain drug supersaturation in vitro was assessed by using the microcentrifuge dissolution test to measure drug dissolution after suspension in 0.5% methylcellulose in water for 2 hours. Methylcellulose is a standard viscosifying suspending agent which is used to maintain drug particles in suspension in oral suspension dosage forms. The table below presents in vitro dissolution performance before and after suspension in 0.5% methylcellulose.

[2] = Microcentrifuge dissolution test in Model Fasted Duodenal Solution; type: physicochemical; conditions: for Enzalutamide Concentration / AUC90 (area under the curve at 90 minutes) / Cmax,90 (maximum drug concentration through 90 minutes): MFDS pH 6.5, dose 200 µg/ml; for AUC90 (area under the curve at 90 minutes) / Cmax,90 (maximum drug concentration through 90 minutes): Table 4.2; for Average enzalutamide concentration: Table 9.1
Description: The in vitro dissolution test to evaluate enhanced drug concentration in aqueous solution can be conducted by (1) adding with agitation a sufficient quantity of control composition, that is, the crystalline enzalutamide alone, to the in vitro test medium, typically MFD or PBS solution, to determine the maximum concentration of the enzalutamide achieved under the conditions of the test: (2) adding with agitation a sufficient quantity of test composition (e.g., the enzalutamide and polymer) in an equivalent test medium, such that if all the enzalutamide dissolved, the theoretical concentration of enzalutamide would exceed the observed maximum concentration of enzalutamide by a factor of about 20; and (3) comparing the measured MDC and/or aqueous concentration versus time AUC90 of the test composition in the test medium with the maximum concentration, and/or the aqueous concentration versus time AUC90 of the control composition. In conducting such a dissolution test, the amount of test composition or control composition used is an amount such that if all of the enzalutamide dissolved, the test enzalutamide concentration would be at least about 20-fold that of the control enzalutamide concentration.
The concentration of dissolved enzalutamide is typically measured as a function of time by sampling the test medium and plotting enzalutamide concentration in the test medium vs. time so that the MDC can be ascertained. The MDC is taken to be the maximum value of dissolved enzalutamide measured over the duration of the test. The enzalutamide concentration versus time AUC90 is calculated by integrating the concentration versus time curve over any 90-minute time period between the time of introduction of the composition into the aqueous use environment (time equals zero) and 270 minutes following introduction to the use environment (time equals 270 minutes). Typically, when the composition reaches its MDC rapidly, in less than about 30 minutes, the time interval used to calculate AUC90 is from time equals zero to time equals 90 minutes. However, if the AUC90 over any 90-minute time period described above of a composition meets the criteria of compositions described herein, then the composition is included in compositions of this disclosure. The time period 270 min is chosen because of its physiological relevance. Drug absorption in mammals generally occurs in the small intestine, and the small intestinal transit time in humans is approximately 4.5 hr, or 270 min.
To avoid large enzalutamide particulates which would give an erroneous determination, the test solution is either filtered or centrifuged. “Dissolved enzalutamide” is typically taken as that material that either passes a 0.45 micron syringe filter or, alternatively, the material that remains in the supernatant following centrifugation. Filtration can be conducted using a 13 mm, 0.45 micron polyvinylidine difluoride syringe filter, such as the filter sold by Scientific Resources under the trademark TITAN™. Centrifugation is typically carried out in a polypropylene microcentrifuge tube by centrifuging at 13.000 G for 60 seconds. Other similar filtration or centrifugation methods can be employed and useful results obtained. For example, using other types of microfilters may yield values somewhat higher or lower (+/- 10-40%) than that obtained with the filter specified above but will still allow identification of dispersions. It is recognized that this definition of “dissolved enzalutamide” encompasses not only monomeric solvated enzalutamide molecules but also a wide range of species such as polymer/enzalutamide assemblies that have submicron dimensions such as enzalutamide aggregates, aggregates of mixtures of polymer and enzalutamide, micelles, polymeric micelles, colloidal particles, polymer/enzalutamide complexes, and other such enzalutamide-containing species that are present in the filtrate or supernatant in the specified dissolution test. […]

[3] = Relative bioavailability of amorphous drug and HME dispersions in rats (Example 13); type: in vivo, rat; conditions: oral gavage 20 mg/kg; for Mean AUC0-inf: rat plasma; for Bioavailability (Mean AUC0-inf/IV Mean AUC0-inf): rat
Procedure: Six groups of jugular vein-cannulated CD® rats (n=6 per group) were dosed six enzalutamide formulations by oral gavage, at a dose of 20 mg/kg, in a volume of 2 ml/kg. with the exception of one group which was dosed intravenously via tail vein. Blood samples were obtained at 1, 3, 6, 12, 24, 36, 48, 60, and 72 hr post-dose.
The analytes, enzalutamide, MDPC0002, and MDPC0001 and internal standards (IS), N-^13CD3-enzalutamide, MDPC0002-^13CD3. and MDPC0001-^13CD3 were extracted from […] of rat plasma by a liquid-liquid extraction procedure. Internal standard working solution (25.0 µL) was added to all wells except the matrix blank. A 25.0 µL-volume of acetonitrile was added all matrix blank samples. After adding 200 µL of 5% sodium bicarbonate in water buffer solution, the plate was vortexed for approximately 10 seconds. A Tomtec Quadra 96-well pipettor was used to add 1.050 mL of methyl tert-butyl ether (MTBE) to all wells, mixed, and approximately 1.00 mL of the organic layer was transferred to a clean 96-well plate. The samples were evaporated under heated nitrogen and reconstituted with 250 µL of 0.1% formic acid in methanol/water (40:60, v/v). The plate was covered and gently vortexed for approximately 10 seconds. The extracts were chromatographed under reverse phase conditions on an ACE 5 C18 HPLC 5 µm, 2.1 x 30 mm column. The compounds were detected and quantified by tandem mass spectrometry in positive ion mode on an MDS Sciex API 3000 equipped with a Turbo IONSPRAY® probe. Calibration curves were obtained by performing a linear regression (weighted ⅟x^2) of the data from the calibration standards.
Plasma enzalutamide concentration vs. time curves were prepared, and values for the following parameters were determined. Cmax is the highest enzalutamide concentration observed for each rat. Tmax is the time that Cmax is first achieved. AUC0-72 is the area under the plasma enzalutamide concentration vs. time plot out to 72 hr post-dosing.

[4] = Crystallinity by PXRD (and DSC); type: physicochemical; conditions: after spray-drying
[5] = 0 hr, before suspension in 0.5% methylcellulose
[6] = after suspension for 2 hr in aqueous 0.5% methylcellulose
[7] = listed as Amorphous (spray-dried) enzalutamide
[8] = listed as Spray-dried amorphous drug

CNC(=O)c1ccc(N2C(=S)N(c3ccc(C#N)c(C(F)(F)F)c3)C(=O)C2(C)C)cc1F [Amorphous enzalutamide, 4-{3-[4-cyano-3-(trifluoromethyl)phenyl]-5,5-dimethyl-4-oxo-2-sulfanylideneimidazolidin-1-yl}-2-fluoro-N-methylbenzamide]
AUC90 [1, 5]: 8,900 min·mcg/ml | Cmax 90 [1, 5]: 110 µg/mL | AUC90 [1, 6]: 8,800 min·mcg/ml | AUC90% of 0 Hr Value [1, 6]: 99% | Cmax 90 [1, 6]: 100 µg/mL | Enzalutamide Concentration ([2]; 0 min): 0.0 µg/mL | Enzalutamide Concentration ([2]; 4 min, listed as Amorphous (spray-dried) enzalutamide): 61 µg/mL | Enzalutamide Concentration ([2]; 10 min, listed as Amorphous (spray-dried) enzalutamide): 100 µg/mL | Enzalutamide Concentration ([2]; 20 min, listed as Amorphous (spray-dried) enzalutamide): 100 µg/mL | Enzalutamide Concentration ([2]; 40 min, listed as Amorphous (spray-dried) enzalutamide): 110 µg/mL | Enzalutamide Concentration ([2]; 90 min, listed as Amorphous (spray-dried) enzalutamide): 120 µg/mL | Enzalutamide Concentration ([2]; 1200 min, listed as Amorphous (spray-dried) enzalutamide): 30 µg/mL | AUC90 (area under the curve at 90 minutes) [2, 7]: 9,500 min*µg/mL | Cmax,90 (maximum drug concentration through 90 minutes) [2, 7]: 120 µg/mL | Mean AUC0-inf [3, 8]: 132000 ng·h/mL | Bioavailability (Mean AUC0-inf/IV Mean AUC0-inf) [3, 8]: 57.1% | crystallinity by PXRD [4]: completely amorphous

CNC(=O)c1ccc(N2C(=S)N(c3ccc(C#N)c(C(F)(F)F)c3)C(=O)C2(C)C)cc1F [Control 1, 4-{3-[4-cyano-3-(trifluoromethyl)phenyl]-5,5-dimethyl-4-oxo-2-sulfanylideneimidazolidin-1-yl}-2-fluoro-N-methylbenzamide]
Enzalutamide Concentration ([2]; 4 min): 1 µg/mL | Enzalutamide Concentration ([2]; 10 min): 3 µg/mL | Enzalutamide Concentration ([2]; 20 min): 5 µg/mL | Enzalutamide Concentration ([2]; 40 min): 6 µg/mL | Enzalutamide Concentration ([2]; 90 min): 7 µg/mL | Enzalutamide Concentration ([2]; 1200 min): 9 µg/mL | AUC90 (area under the curve at 90 minutes) [2]: 500 µg·min/mL | Cmax,90 (maximum drug concentration through 90 minutes) [2]: 7 µg/mL | Average enzalutamide concentration ([2]; 0 min): 0.32 µg/mL | Average enzalutamide concentration ([2]; 4 min): 5.23 µg/mL | Average enzalutamide concentration ([2]; 10 min): 8.04 µg/mL | Average enzalutamide concentration ([2]; 20 min): 7.69 µg/mL | Average enzalutamide concentration ([2]; 40 min): 8.65 µg/mL | Average enzalutamide concentration ([2]; 90 min): 9.14 µg/mL | Average enzalutamide concentration ([2]; 1200 min): 12.12 µg/mL | AUC90 min ([2]; Table 9.2): 740 µg·min/mL | Cmax,90 min ([2]; Table 9.2): 10 µg/mL | Mean AUC0-inf [3]: 62600 ng·h/mL | Bioavailability (Mean AUC0-inf/IV Mean AUC0-inf) [3]: 27.1%
